# Test system: Caenorhabditis elegans
# Assay: In vitro nematode test
# Conditions: Caenorhabditis elegans, 168 h, concentration at which reproduction is prevented; 7 days at 22°C; read-out: Dosis effectiva
# Method: 10-^4 g Wirkstoff wurden in 1 ml Wasser oder 0,1 ml Dimethylsulfoxid (DMSO) gelöst. Diese Lösung wurde auf eine Replica-Platte gegeben. Dazu wurden 2 ml einer E-coli-Suspension gegeben, in der man 10-20 weibliche Tiere oder Larven von Caenorhabditis elegans in 0,5 ml M9 Pufferlösung gegeben hat. Die E-coli-Suspension wurde hergestellt indem man 300 ml einer Ubernachthalter eines Uracil-bedürftigen E-coli-Stammes mit 1,8 1 steriler M 9 Pufferlösung versetzte.
# Der Versuchsansatz wurde 7 Tage bei 22°C inkubiert und danach ausgewertet. Es wurde bewertet inwieweit der Wirkstoff die Vermehrung beeinträchtigt und die Konzentration angegeben bei der die Vermehrung verhindert wird.
row,Compound,minimal effective concentration [µg/mL]
1,CN1C(=O)C(C(=O)Nc2ccc([N+](=O)[O-])cc2)C(=O)N(C)P1(=O)Oc1ccc(Cl)cc1 (centres unmarked) [Beispiel 4],10
2,CN1C(=O)C(C(=O)Nc2ccccc2SC(F)(F)F)C(=O)N(C)P1(=O)Oc1ccccc1 (centres unmarked) [Beispiel 11],100
3,CN1C(=O)C(C(=O)Nc2ccc(S(=O)(=O)C(F)(F)F)cc2)C(=O)N(C)P1(=O)Oc1ccccc1 (centres unmarked) [Beispiel 13],10
4,CN1C(=O)C(C(=O)Nc2ccc([N+](=O)[O-])cc2)C(=O)N(C)P1(=O)Oc1ccc([N+](=O)[O-])cc1 (centres unmarked) [Beispiel 18],100
5,COc1ccc(NC(=O)C2C(=O)N(C)P(=O)(Oc3ccc(OC)cc3)N(C)C2=O)cc1 (centres unmarked) [Beispiel 19],100
6,COc1ccc(NC(=O)C2C(=O)N(C)P(=O)(Oc3ccc(C)cc3)N(C)C2=O)cc1 (centres unmarked) [Beispiel 20],10
7,CN1C(=O)C(C(=O)Nc2ccc(SC(F)(F)F)cc2)C(=O)N(C)P1(=O)Oc1cccc(Cl)c1 (centres unmarked) [Beispiel 37],10
8,CN1C(=O)C(C(=O)Nc2ccc(OC(F)(F)F)cc2)C(=O)N(C)P1(=O)Oc1cccc(Cl)c1 (centres unmarked) [Beispiel 38],10
9,CC(C)N1C(=O)C(C(=O)Nc2ccc(SC(F)(F)F)cc2)C(=O)N(C)P1(=O)Oc1cccc(Cl)c1 (centres unmarked) [Beispiel 42],10
10,CN1C(=O)C(C(=O)Nc2ccc(SC(F)(F)F)cc2)C(=O)N(c2ccccc2)P1(=O)Oc1ccccc1 (centres unmarked) [Beispiel 44],10
11,CCN1C(=O)C(C(=O)Nc2ccc(Oc3ccc(C(F)(F)F)cc3)cc2)C(=O)N(C)P1(=O)Oc1cccc(Cl)c1 (centres unmarked) [Beispiel 46],10
12,CC(C)N1C(=O)C(C(=O)Nc2ccc(C(F)(F)F)cc2C(F)(F)F)C(=O)N(Cc2ccccc2)P1(=O)Oc1cccc(Cl)c1 (centres unmarked) [Beispiel 51],100
13,Cc1cccc(OP2(=O)N(C)C(=O)C(C(=O)Nc3ccc(SC(F)(F)F)cc3)C(=O)N2C(C)C)c1 (centres unmarked) [Beispiel 54],10
14,CCN1C(=O)C(C(=O)Nc2ccc(C(F)(F)F)c(Cl)c2)C(=O)N(C)P1(=O)Oc1cccc(Cl)c1 (centres unmarked) [Beispiel 55],10
15,CCN1C(=O)C(C(=O)Nc2ccc(C(F)(F)F)cc2C(F)(F)F)C(=O)N(C)P1(=O)Oc1cccc(Cl)c1 (centres unmarked) [Beispiel 56],10
16,CCN1C(=O)C(C(=O)Nc2ccc(Cl)c(C(F)(F)F)c2)C(=O)N(C)P1(=O)Oc1cccc(Cl)c1 (centres unmarked) [Beispiel 57],10
17,CCN1C(=O)C(C(=O)Nc2ccc(SC(F)(F)F)cc2)C(=O)N(C)P1(=O)Oc1cccc(Cl)c1 (centres unmarked) [Beispiel 58],10
18,CCN1C(=O)C(C(=O)Nc2ccc(OC(F)(F)F)cc2)C(=O)N(C)P1(=O)Oc1cccc(Cl)c1 (centres unmarked) [Beispiel 59],10
19,CCN1C(=O)C(C(=O)Nc2ccc(C(F)(F)F)c(C(F)(F)F)c2)C(=O)N(C)P1(=O)Oc1cccc(Cl)c1 (centres unmarked) [Beispiel 61],10
20,CC(C)N1C(=O)C(C(=S)Nc2ccccc2)C(=O)N(C)P1(=O)Oc1cccc(Cl)c1 (centres unmarked) [Beispiel 62],100
21,CC(C)N1C(=O)C(C(=O)Nc2ccc(SC(F)(F)F)c(Cl)c2)C(=O)N(C)P1(=O)Oc1cccc(Cl)c1 (centres unmarked) [Beispiel 64],10
22,Cc1cccc(OP2(=O)N(C)C(=O)C(C(=O)Nc3ccc(Cl)c(C(F)(F)F)c3)C(=O)N2C(C)C)c1 (centres unmarked) [Beispiel 65],10

# Same assay, conditions: concentration at which reproduction is prevented; 7 days at 22°C
row,Compound,Dosis effectiva [mg/L]
1,CN1C(=O)C(C(=O)Nc2ccc(S(=O)(=O)C(F)(F)F)cc2)C(=O)N(C)P1(=O)Oc1ccc(Cl)cc1 (centres unmarked) [Beispiel 5],10
